Laboratory results as given in patent US9242992B2, “Crystal form of tricyclic benzopyran compound and production method thereof” (NISSAN CHEMICAL INDUSTRIES, LTD., priority 2009, dated 2016).

What was measured:
Assay type in all cases: physicochemical
[1] = Solubility, Japanese Pharmacopoeia dissolution test in JP2 pH 6.8; details: for Solubility: JP2, pH 6.8, 60 minutes, 10 mg in 500 mL, 37° C.
Procedure: The solubility and the specific surface area of the A-form, B-form, E-form and F-form crystals of Compound (1) were examined.
[Measurement conditions] JP2, pH 6.8 (3.40 g of potassium dihydrogen phosphate and 3.55 g of anhydrous disodium hydrogen phosphate is dissolved in water to obtain 1 liter of solution. The 1 volume of the solution is mixed with the 1 volume of water to obtain JP2, pH 6.8.), 60 minutes
according to the Japanese Pharmacopoeia fifteenth edition, dissolution test (Protocol of the dissolution test; sample amount: 10 mg, test solution: JP2, pH 6.8, 500 mL, sampling point: 5, 15, 30, 60 min, paddle rotational speed: […], bath temperature: 37° C.)

[2] = Water adsorption analysis; details: 25° C., sample 0.2 g, pre-treatment 60° C. 20 hours
Procedure: The A-, B- and E-form crystals of Compound (1) were evaluated by water adsorption analysis.
[Measurement conditions] sample amount: 0.2 g; pre-treatment: 60° C., 20 hours; temperature 25° C., Volumetric adsorption apparatus (trade name: BELSORP 18 manufactured by BEL Japan, Inc.) was used.

[3] = Thermostability, humidity stability and photostability tests (total impurities by HPLC); details: for Total amount of impurities by HPLC, initial value: Test Example 1, before the stability tests
Procedure: The thermostability, humidity stability and photostability of the A-, B- and F-form crystals of Compound (1) were examined.
The conditions for each test were as follows.
Thermostability test: 60° C., humidity was not controlled, 2 weeks, in air-tight container
Humidity stability test: 25° C., 90% RH, 2 weeks, in opened container
Photostability test: 200 W/m^2·hr, 25° C., 60% RH, 57 hours, in opened container
(§1) In addition, the stability of the crystals was evaluated by the degree of increase of the total amount of impurities by HPLC analysis.

[4] = High-temperature XRD measurement
Procedure: The A-form and B-form crystals of Compound (1) were subjected to the high-temperature XRD measurement.
As shown in FIG. 8 and FIG. 9, there was observed no change until 100° C. in the powder X-ray diffractogram of the A-form crystal and until 60° C. in the powder X-ray diffractogram of the B-form crystal.

[5] = Specific surface area by BET method (nitrogen adsorption); details: for Specific surface area: BET, adsorption temperature 77K, equilibrium time 300 seconds
Procedure: [Measurement conditions] adsorption temperature: 77K, adsorption equilibrium time: 300 seconds
[Measured value unit] square meter/gram
The measurement was performed by the BET method using the nitrogen adsorption in liquid nitrogen after a pre-treatment in refluxed liquid nitrogen.

[6] = Acceleration test (total impurities by HPLC); details: for Increase of impurities in acceleration test (in words) / Total amount of impurities by HPLC, measured value after test: 40° C., 75% RH, 6 months, air-tight container; for Total amount of impurities by HPLC, initial value: Test Example 2, before the acceleration test
Procedure: The A-, B- and E-form crystals of Compound (1) were subjected to an acceleration test. The conditions for the test were as follows.
Acceleration test: 40° C., 75% RH, 6 months, in an air-tight container
as §1

| Compound | Solubility in the JP2 solution (in words) ([1]; JP2, pH 6.8) | Solubility [1] [%] | Adsorption of water (in words) [2] | Adsorption of water (in words) ([2]; listed as A-form) | Total amount of impurities by HPLC, initial value [3] [%] | Increase of impurities under the conditions (in words) ([3]; thermostability, humidity stability and photostability tests) | Temperature until which no change was observed in the powder X-ray diffractogram [4] [°C] | Specific surface area (in words) ([5]; BET method) | Specific surface area [5] [square meter/gram] | Increase of impurities in acceleration test (in words) [6] | Total amount of impurities by HPLC, measured value after test [6] [%] | Total amount of impurities by HPLC, initial value [6] [%] |
| --- | --- | --- | --- | --- | --- | --- | --- | --- | --- | --- | --- | --- |
| Cc1cc(CO)nc2cc3c(cc12)OC(C)(C)[C@H](O)[C@H]3NCCc1ccccc1 [A-form crystal, (3R,4S)-7-hydroxymethyl-2,2,9-trimethyl-4-(phenethylamino)-3,4-dihydro-2H-pyrano[2,3-g]quinolin-3-ol] | high solubility | 36 | less than that on E-form crystal | no adsorption of water | 0.84 | no increase of impurities | 100 | high value | 0.7 | no increase of impurities | 0.80 | 0.70 |
| Cc1cc(CO)nc2cc3c(cc12)OC(C)(C)[C@H](O)[C@H]3NCCc1ccccc1 [B-form crystal, (3R,4S)-7-hydroxymethyl-2,2,9-trimethyl-4-(phenethylamino)-3,4-dihydro-2H-pyrano[2,3-g]quinolin-3-ol] | – | 27 | the adsorption of water was observed, the adsorption was reversible | – | 0.55 | – | 60 | – | 0.3 | – | 1.15 | 0.42 |
| Cc1cc(CO)nc2cc3c(cc12)OC(C)(C)[C@H](O)[C@H]3NCCc1ccccc1 [E-form crystal, (3R,4S)-7-hydroxymethyl-2,2,9-trimethyl-4-(phenethylamino)-3,4-dihydro-2H-pyrano[2,3-g]quinolin-3-ol] | – | 23 | no adsorption of water | – | – | – | – | – | 0.3 | no increase of impurities | 0.64 | 0.64 |
| Cc1cc(CO)nc2cc3c(cc12)OC(C)(C)[C@H](O)[C@H]3NCCc1ccccc1 [F-form crystal, (3R,4S)-7-hydroxymethyl-2,2,9-trimethyl-4-(phenethylamino)-3,4-dihydro-2H-pyrano[2,3-g]quinolin-3-ol] | – | 30 | – | – | 0.25 | – | – | – | – | – | – | – |
